Experimental data: patent US9321764B2, “Dihydro-pyrrolopyridinone inhibitors” (AbbVie Inc., priority 2013, dated 2016)
Marks after values point to notes of the source that are not given here.

Assays:
BRD4 (BDII_E352-M457) = biological target: T1, BRD4 (BDII_E352-M457) (Homo sapiens, UniProt O60885); assay: TR-FRET bromodomain binding assay, second bromodomain of BRD4; conditions: His-tagged BD2, 30 nM Alexa647 probe; TR-FRET protocol A-E given per row
T1 construct: proliferation; Protocol; made in house
How it was run: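 His-tagged BRD4 BD2 ([…]) competed against an Alexa647-labelled BET-inhibitor probe in TR-FRET. Buffer was 20 mM sodium phosphate pH 6.0, 50 mM NaCl, 1 mM EDTA, 0.01% Triton X-100, 1 mM DTT, with method D DMSO series of 2.5 mM–800 nM (stock range). IC50 from 4-parameter fit, Ki from probe Kd and concentration.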

OPM-2 xenograft tumors = assay: Xenograft tumor growth inhibition assay (OPM-2); type: in vivo, mice; conditions: QDx21; for % TGI: OPM-2 xenograft, SCID-beige mice; for % removed from study: removed due to morbidity or weight loss in excess of 20%
Procedure: The effect of compounds of the examples to inhibit the growth of OPM-2 xenograft tumors implanted in mice was evaluated. A suspension of cancer cells (5×10^6 per 0.1 mL) prepared in RPMI culture medium (Invitrogen, Carlsbad, Calif.) was diluted 1:1 with a solution of Matrigel™ (BD Biosciences, Franklin Lakes, N.J.) and inoculated subcutaneously into the right hind flank of female SCID-beige (Charles River Labs) mice. Randomization into treatment and vehicle control groups (10/group) occurred when the mean tumor volume reached approximately 250 mm^3 Compounds were formulated in 10% EtOH, 30% PEG 400, 60% Phosol 53 MCT. Administration of compound or vehicle was initiated on the day following randomization and continued for 21 days.

BRD4 (BDI_K57-E168) = biological target: T2, BRD4 (BDI_K57-E168) (Homo sapiens, UniProt O60885); assay: TR-FRET bromodomain binding assay, first bromodomain of BRD4; conditions: His-tagged BD1, 100 nM Alexa647 probe; TR-FRET protocol A-E given per row
T2 construct: BD1: amino acids K57-E168; made in house
How it was run: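 Ki values come from IC50s (4-parameter logistic) corrected for probe Kd and concentration, normalised to no-compound and 1 μM unlabelled probe controls. Probe displacement by TR-FRET used 8 nM BD1 (K57-E168), 100 nM Alexa647 probe, 1 nM Eu-anti-His, 20 mM phosphate pH 6.0, 2% DMSO, 1 h, room temperature.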

[1] = tested on: LPS induced IL-6 production; assay: LPS (lipopolysaccharide) induced IL-6 production mouse assay; type: in vivo; conditions: read-out: Inhibition of LPS induced IL-6 production, % inhibition at 3 mg/kg, 3 mg/kg oral, one hour before LPS 2.5 mg/kg i.p., serum IL-6 2 hours after LPS, SCID female mice, all p < 0.05
Procedure: Compounds of the Examples listed in Table 2 were assayed for their ability to inhibit LPS (lipopolysaccharide) induced IL-6 (Interleukin-6) production in mice. Fox Chase SCID® female mice (Charles Rivers Labs, 5 per group) received an intraperitoneal challenge of lipopolysaccharide (2.5 mg/kg, L2630 E. coli 0111:B4) one hour after oral administration of compounds. Mice were euthanized 2 hours after lipopolysaccharide injection, blood was removed by cardiac puncture, and then the serum harvested from the blood samples was frozen at −80° C. On the day of the assay the serum samples were brought to room temperature and then diluted 1:20 in phosphate-buffered saline containing 2% bovine serum albumin. Interleukin-6 measurements were performed using a cytokine assay from Meso Scale Discovery (Gaithersburg, Md.) for mouse serum analysis according to the manufacturer's protocol and read on a SECTOR Imager 6000 (Meso Scale Discovery, Gaithersburg, Md.) instrument. Statistical analysis was performed using Prism software (version 5.0) incorporating Dunnett's one way ANOVA. The IL-6 mean and standard deviation of the group of vehicle treated animals were compared with the IL-6 mean and standard deviation of the group treated with drug. A p value <0.05 means that there is less than a 5% probability that the mean values in the two groups are equal.

[2] = tested on: breast cancer cell line MX-1; assay: MX-1 cell line proliferation assay; type: cell-based; conditions: Homo sapiens, MX1, 72 h, MX-1 cells, 3-day proliferation assay, Cell Titer Glo; read-out: Cellular proliferation EC50
How it was run: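 Final compound concentrations spanned 0.0001 to 3 μM, added to 5000 cells/well plated the previous night in RPMI 1640 plus 10% FBS at 37 °C.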

Structure (SMILES) | Ki (BRD4 (BDII_E352-M457)) [nM] | % TGI (OPM-2 xenograft tumors; 10 mg/kg PO) | % removed from study (OPM-2 xenograft tumors; 10 mg/kg PO) [%] | % TGI (OPM-2 xenograft tumors; 30 mg/kg PO) | % removed from study (OPM-2 xenograft tumors; 30 mg/kg PO) [%] | Ki (BRD4 (BDI_K57-E168)) [nM] | inhibition in vivo at 3 mg/kg [1] [%] | EC50 [2] [nM] | % TGI (OPM-2 xenograft tumors; 1 mg/kg PO) [%] | % removed from study (OPM-2 xenograft tumors; 1 mg/kg PO) [%] | % TGI (OPM-2 xenograft tumors; 3 mg/kg PO) [%] | % removed from study (OPM-2 xenograft tumors; 3 mg/kg PO) [%]
Cn1cc(-c2cc(S(C)(=O)=O)ccc2Oc2ccc(F)cc2F)c2cc[nH]c(=O)c21 [Example 17, 3-[2-(2,4-difluorophenoxy)-5-(methylsulfonyl)phenyl]-1-methyl-1,6-dihydro-7H-pyrrolo[2,3-c]pyridin-7-one] | 38 | 60*** % | 10 | 64*** % | 10 | 34 | 49 | 107 | – | – | – | –
Cn1cc(-c2cc(CS(C)(=O)=O)ccc2Oc2ccc(F)cc2F)c2cc[nH]c(=O)c21 [Example 52, 3-{2-(2,4-difluorophenoxy)-5-[(methylsulfonyl)methyl]phenyl}-1-methyl-1,6-dihydro-7H-pyrrolo[2,3-c]pyridin-7-one] | 7.1 | – | – | – | – | 4.6 | 77 | – | 13 | 0 | 16 | 10
CCS(=O)(=O)Cc1ccc(Oc2ccc(F)cc2F)c(-c2cn(C)c3c(=O)[nH]ccc23)c1 [Example 53, 3-{2-(2,4-difluorophenoxy)-5-[(ethylsulfonyl)methyl]phenyl}-1-methyl-1,6-dihydro-7H-pyrrolo[2,3-c]pyridin-7-one] | 6.6 | – | – | – | – | 3.2 | 74 | 39 | – | – | – | –
Cn1cc(-c2cc(CS(C)(=O)=O)cnc2Oc2ccc(F)cc2F)c2cc[nH]c(=O)c21 [Example 60, 3-{2-(2,4-difluorophenoxy)-5-[(methylsulfonyl)methyl]pyridin-3-yl}-1-methyl-1,6-dihydro-7H-pyrrolo[2,3-c]pyridin-7-one] | 6.2 | – | – | – | – | 16 | 62 | 37 | – | – | – | –
